Laboratory results: the supplement of paper PMC8967900

Experiments:
Assay in all cases: selective drug sensitivity score (sDSS, relative to normal bone marrow) (sDSS (score)); higher = more potent and effective on the cell line relative to normal bone marrow cells
Conditions in all cases: 72 h
380 = test system: 380
697 = test system: 697
CCRF-CEM = test system: CCRF-CEM
CCRF-HSB2 = test system: CCRF-HSB2
COG-LL-317 = test system: COG-LL-317
COG-LL-319h = test system: COG-LL-319h
COG-LL-355h = test system: COG-LL-355h
COG-LL-402h = test system: COG-LL-402h
HAL-01 = test system: HAL-01
KASUMI-10 = test system: KASUMI-10
KOPN-8 = test system: KOPN-8
MHH-CALL-2 = test system: MHH-CALL-2
MHH-CALL-3 = test system: MHH-CALL-3
MOLT-4 = test system: MOLT-4
NALM-16 = test system: NALM-16
RCH-ACV = test system: RCH-ACV
SEM cells = test system: SEM cells
SUP-B15 = test system: SUP-B15
TANOUE = test system: TANOUE
TMD5 = test system: TMD5
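Also: ALL cell lines in 384-well plates, five doses spanning 10,000-fold, each plate scaled between vehicle and 100 µmol/L benzalkonium chloride controls, sDSS an adapted area-under-curve metric.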

| Compound | selective drug sensitivity score 380 | selective drug sensitivity score 697 | selective drug sensitivity score (CCRF-CEM) | selective drug sensitivity score (CCRF-HSB2) | selective drug sensitivity score (COG-LL-317) | selective drug sensitivity score (COG-LL-319h) | selective drug sensitivity score (COG-LL-355h) | selective drug sensitivity score (COG-LL-402h) | selective drug sensitivity score (HAL-01) | selective drug sensitivity score (KASUMI-10) | selective drug sensitivity score (KOPN-8) | selective drug sensitivity score (MHH-CALL-2) | selective drug sensitivity score (MHH-CALL-3) | selective drug sensitivity score (MOLT-4) | selective drug sensitivity score (NALM-16) | selective drug sensitivity score (RCH-ACV) | selective drug sensitivity score (SEM cells) | selective drug sensitivity score (SUP-B15) | selective drug sensitivity score (TANOUE) | selective drug sensitivity score (TMD5) |
| --- | --- | --- | --- | --- | --- | --- | --- | --- | --- | --- | --- | --- | --- | --- | --- | --- | --- | --- | --- | --- |
| CC(C)(C)NC(=O)[C@H]1CC[C@H]2[C@@H]3CC[C@H]4NC(=O)C=C[C@]4(C)[C@H]3CC[C@]12C [Finasteride] (top concentration 10000 nM) | -0.52 | -0.52 | -0.52 | -0.52 | -0.52 | -0.42 | -0.52 | -0.52 | 1.08 | -0.42 | 8.18 | 0.98 | -0.52 | -0.52 | -0.52 | -0.52 | 1.48 | 3.08 | -0.52 | 0.58 |
| Cc1ccc(NC(=O)c2ccc(CN3CC[C@H](N(C)C)C3)c(C(F)(F)F)c2)cc1Nc1nccc(-c2cncnc2)n1 [Bafetinib] (top concentration 1000 nM) | 0 | 0 | 0 | 9.9 | 0 | 1.9 | 0.8 | 0.5 | 0 | 0 | 3.1 | 0 | 0 | 0 | 0 | 0.4 | 0 | 21.9 | 0 | 9.1 |
| O=C(Nc1ccc(OC(F)(F)Cl)cc1)c1cnc(N2CC[C@@H](O)C2)c(-c2cc[nH]n2)c1 [Asciminib] (top concentration 1000 nM) | 1.92 | -1.18 | -1.98 | -1.98 | -0.88 | 10 | 2.02 | -1.98 | -0.88 | -1.98 | 11.4 | -1.98 | -0.98 | 1.12 | -1.98 | -1.98 | 5.72 | 26.2 | 1.12 | 13.6 |
| CN1CCN(CCOc2cc(OC3CCOCC3)c3c(Nc4c(Cl)ccc5c4OCO5)ncnc3c2)CC1 [Saracatinib] (top concentration 10000 nM) | -2.02 | 4.28 | -1.52 | 28.9 | 1.78 | 12.8 | 0.48 | 8.68 | -1.32 | 1.48 | 2.38 | -0.52 | 0.08 | 1.58 | -2.02 | 7.28 | 0.08 | 17 | -2.02 | 0.58 |
| CC[C@]1(O)C[C@H]2CN(CCc3c([nH]c4ccccc34)[C@@](C(=O)OC)(c3cc4c(cc3OC)N(C)[C@H]3[C@@](O)(C(=O)OC)[C@H](OC(C)=O)[C@]5(CC)C=CCN6CC[C@]43[C@@H]65)C2)C1 [Vinblastine] (top concentration 1000 nM) | 7 | 12.5 | -1.5 | -3.4 | -0.2 | 19.7 | -0.6 | 4.6 | -5.1 | -1 | 12.8 | -3.2 | -0.1 | -3.5 | 5.4 | 14.4 | 10.8 | 12.9 | -9 | -4.9 |
| O=C(c1ccc(C(=O)N2CCC(N3CCCC3)CC2)c(Nc2ccccc2)c1)N1CCC(N2CCCC2)CC1 [UNC1215] (top concentration 10000 nM) | 0 | 0 | 0 | 0 | 0 | 0 | 0 | 0 | 0 | 0 | 0 | 0 | 0 | 0 | 0 | 0 | 0 | 0 | 0 | 0 |
| C[C@@H]1CN(Cc2ccc(F)cc2)[C@@H](C)CN1C(=O)c1cc2c(C(=O)C(=O)N(C)C)cn(C)c2cc1Cl [Talmapimod] (top concentration 10000 nM) | 0 | 1 | 0 | 0 | 0 | 0 | 0 | 0 | 0 | 0 | 0 | 0 | 0 | 0 | 0 | 4.9 | 0.4 | 2.8 | 0 | 0 |
| CCCS(=O)(=O)Nc1ccc(F)c(C(=O)c2c[nH]c3ncc(-c4ccc(Cl)cc4)cc23)c1F [Vemurafenib] (top concentration 10000 nM) | -1.14 | 5.16 | 3.46 | 4.06 | 3.26 | 0.36 | 0.86 | -1.14 | 0.16 | -0.84 | 6.56 | 3.56 | -1.14 | 2.26 | -1.14 | 3.36 | 3.26 | 2.26 | -1.14 | 1.26 |
| CN(C)C/C=C/C(=O)Nc1cc2c(Nc3ccc(F)c(Cl)c3)ncnc2cc1O[C@H]1CCOC1 [Afatinib] (top concentration 1000 nM) | -0.84 | -0.34 | 0.66 | 1.96 | -0.84 | -0.84 | 0.46 | 0.46 | 3.06 | -0.84 | -0.74 | 0.16 | 3.96 | -0.84 | -0.84 | 1.26 | 0.96 | -0.84 | -0.84 | 3.56 |
| COc1cc(OC2CCN(C)CC2)ccc1Nc1ncc2c(n1)n(C1CCCC1)c(=O)n2C [AZ3146] (top concentration 10000 nM) | -2.86 | 1.04 | 0.94 | 1.84 | 0.74 | 7.04 | 2.94 | -0.56 | 2.24 | 3.64 | 4.54 | 1.94 | -4.16 | 1.84 | -2.56 | 1.24 | 2.04 | 1.34 | -4.16 | -4.06 |
| C[C@H]1Oc2cc(cnc2N)-c2c(nn(C)c2C#N)CN(C)C(=O)c2ccc(F)cc21 (top concentration 1000 nM) | -0.72 | -0.72 | -0.72 | -0.72 | -0.72 | 7.38 | 2.18 | -0.72 | 4.18 | -0.72 | 11.3 | -0.72 | -0.72 | -0.72 | -0.72 | 3.38 | -0.72 | -0.72 | -0.72 | -0.62 |
| CCOc1cc2ncc(C#N)c(Nc3ccc(OCc4ccccn4)c(Cl)c3)c2cc1NC(=O)/C=C/CN(C)C [Neratinib] (top concentration 1000 nM) | 4.98 | 6.28 | 2.48 | 1.78 | 1.18 | 6.58 | 5.68 | 7.78 | -0.42 | 3.68 | 2.28 | 2.58 | 4.98 | 1.38 | 1.78 | 5.38 | 1.28 | 1.48 | -0.72 | -0.52 |
| CC/C(=C(\c1ccc(O)cc1)c1ccc(OCCN(C)C)cc1)c1ccccc1 [4-hydroxytamoxifen] (top concentration 10000 nM) | -1.48 | 1.32 | 1.52 | 1.82 | 0.62 | -4.48 | 1.72 | -3.48 | 1.92 | -1.78 | 3.22 | 2.12 | -2.58 | 0.62 | -2.88 | 0.72 | 1.62 | 0.92 | -2.88 | -1.78 |
| COCC1(CO)C(=O)C2CCN1CC2 (stereo not given) [APR-246] (top concentration 10000 nM) | 4.54 | 0.24 | -0.86 | -1.16 | -1.16 | 7.44 | 2.44 | -1.16 | -0.36 | -1.16 | 0.54 | 6.84 | 0.14 | -1.16 | 2.44 | -1.16 | -1.16 | 0.44 | 4.54 | -1.16 |
| C=CC(=O)Nc1cccc(Nc2nc(Nc3ccc(OCCOC)cc3)ncc2F)c1 [Spebrutinib] (top concentration 1000 nM) | -0.16 | 1.94 | 1.64 | 0.04 | -0.16 | -0.06 | 0.64 | 0.84 | 8.34 | 3.64 | -0.16 | 5.84 | 2.34 | -0.16 | -0.16 | 4.14 | 3.74 | 0.04 | -0.16 | -0.16 |
| O=C1Cc2cc(C(=O)NC3C[C@H]4CC[C@@H](C3)N4S(=O)(=O)CC3CCN(CCCC(F)(F)F)CC3)c(Cl)cc2N1 (stereo not given in full) (top concentration 10000 nM) | 0 | 0 | 0 | 0 | 0 | 0 | 0.9 | 0 | 0 | 0 | 0 | 0 | 0 | 0 | 0 | 0 | 0 | 0 | 0 | 2.6 |
| Clc1ccc(Nc2nnc(Cc3ccncc3)c3ccccc23)cc1 [Vatalanib] (top concentration 10000 nM) | 0 | 0 | 0 | 1.1 | 0.5 | 0 | 0 | 0 | 0 | 0 | 0 | 0.1 | 0 | 0 | 0 | 0 | 0 | 0 | 0 | 0 |
